One series concerns ddy male mice. The series is described as follows: Acute Toxicity Test (minimum lethal dose). The following applies: intraperitoneal, ddy male mice 20±1 g, mortality seven days after administration. In kind it is in vivo. The source says: Test compounds were intraperitoneally administered to groups of ddy male mice weighing 20±1 g.
Another series relates to male mice. The series is described as follows: Evaluation Test of Analgesic Activity (acetic acid intraperitoneally, number of risings). The note with it: Mus musculus, po, 10 mg/kg orally, after 1 hour 0.7% acetic acid i.p. 0.1 ml per 10 g, number of risings for 5 minutes, 10 minutes after, vs control, read-out: Inhibition Rate. In kind it is in vivo. Here is the method: Evaluation Test of Analgesic Activity
Test compounds (10 mg/kg) were orally administered to groups of male mice, each group consisting of 4 to 12 mice, and after 1 hour, the mice were administered intraperitoneally with a 0.7% acetic acid aqueous solution in a dose of 0.1 ml per weight of 10 g. Then, the number of the risings manifested for 5 minutes 10 minutes after the administration was compared with a control group to calculate inhibition rate.

The values below come from patent publication US6150355A, “Phenylpiperidine derivative” (Kyowa Hakko Kogyo Co., Ltd., priority 1995, dated 2000).

SMILES strings stand for the structures.

In the case of `Cc1ccc2c(c1)C(N1CCC(O)(c3ccccc3)CC1)c1ccccc1CO2` (centres unmarked) [Compound 2, 11-(4-Hydroxy-4-phenylpiperidine-1-yl)-2-methyl-6,11-dihydrodibenzo[b,e] oxepine], the “minimum lethal dose (MLD)” value with ddy male mice is given as greater than 100 mg/kg. In the series on male mice, the inhibition in vivo at 10 mg/kg turned out to be 83%.

In the case of `Cc1cccc(C2(O)CCN(C3c4ccccc4COc4ccc(C)cc43)CC2)c1` (centres unmarked) [Compound 3, 11-[4-Hydroxy-4-(3-methylphenyl)piperidine-1-yl]-2-methyl-6,11-dihydrodibenzo[b,e] oxepine], the “minimum lethal dose (MLD)” value with ddy male mice is reported as greater than 100 mg/kg. Further, in the series on male mice, the inhibition in vivo at 10 mg/kg amounted to 90%.

Regarding `Cc1ccc2c(c1)C(N1CCC(O)(c3cccc(C(F)(F)F)c3)CC1)c1ccccc1CO2` (centres unmarked) [Compound 4, 11-[4-Hydroxy-4-(3-trifluoromethylphenyl)piperidine-1-yl]-2-methyl-6,11-dihydrodibenzo[b,e] oxepine], the “minimum lethal dose (MLD)” value in the series on ddy male mice is listed as greater than 100 mg/kg. Also, the inhibition in vivo at 10 mg/kg in the series on male mice is 96%.

Take `Cc1ccc2c(c1)C(N1CCC(O)(c3ccc(Cl)cc3)CC1)c1ccccc1CO2` (centres unmarked) [Compound 5, 11-[4-(4-Chlorophenyl)-4-hydroxypiperidine-1-yl]-2-methyl-6,11-dihydrodibenzo[b,e] oxepine]: the “minimum lethal dose (MLD)” value in the series with ddy male mice is greater than 100 mg/kg. Moreover, the inhibition in vivo at 10 mg/kg in the series with male mice is 72%.

For the molecule `CCc1ccc2c(c1)C(N1CCC(O)(c3ccccc3)CC1)c1ccccc1CO2` (centres unmarked) [Compound 8, 2-Ethyl-11-(4-hydroxy-4-phenylpiperidine-1-yl)-6,11-dihydrodibenzo[b,e] oxepine], in the series with ddy male mice, the “minimum lethal dose (MLD)” value is recorded as greater than 100 mg/kg. Also, in the series with male mice, the inhibition in vivo at 10 mg/kg was found to be 94%.

Consider `OCc1ccc2c(c1)C(N1CCC(O)(c3ccccc3)CC1)c1ccccc1CO2` (centres unmarked) [Compound 19, 11-(4-Hydroxy-4-phenylpiperidine-1-yl)-2-hydroxymethyl-6,11-dihydrodibenzo[b,e] oxepine], for which the “minimum lethal dose (MLD)” value in the series with ddy male mice is greater than 100 mg/kg. In addition, in the series on male mice, the inhibition in vivo at 10 mg/kg came to 76%.

Regarding `CC(O)c1ccc2c(c1)C(N1CCC(O)(c3ccccc3)CC1)c1ccccc1CO2` (centres unmarked) [Compound 22, 11-(4-Hydroxy-40phenylpiperidine-1-yl)-2-(1-hydroxyethyl)-6,11-dihydrodibenzo[b,e] oxepine], the “minimum lethal dose (MLD)” value in the series on ddy male mice is greater than 100 mg/kg. The inhibition in vivo at 10 mg/kg in the series on male mice amounted to 100%.

As to `OCc1ccc2c(c1)C(N1CCC(O)(c3cccc(C(F)(F)F)c3)CC1)c1ccccc1CO2` (centres unmarked) [Compound 24, 11-[4-Hydroxy-4-(3-trifluoromethylphenyl)piperidine-1-yl]-2-hydroxymethyl-6,11-dihydrodibenzo[b,e] oxepine], in the series on ddy male mice, the “minimum lethal dose (MLD)” value is greater than 100 mg/kg. Also, the inhibition in vivo at 10 mg/kg with male mice was 100%.

Consider `Cc1ccc2c(c1)C(N1CCC(O)(c3ccccc3)CC1)c1cccnc1CO2` (centres unmarked) [Compound 27, 5-(4-Hydroxy-4-phenylpiperidine-1-yl)-7-methyl-5,11-dihydrobenzo[3,4-b] oxepinopyridine], for which, in the series with male mice, the inhibition in vivo at 10 mg/kg stood at 100%.
